This is an account of results in PMC12386367, “Importin α3 Is Tolerant to Nuclear Localization Signal Chirality” (International Journal of Molecular Sciences, 2025).

As a reminder, the kon is the second-order rate constant of association. In general, koff refers to the rate constant with which the complex falls apart.

Non-standard residues stand in square brackets, D forms with d. Residues, ends and D or L forms follow the SMILES beside them. d(pT) = C[C@H](OP(=O)(O)O)[C@@H](N)C(=O)O

One data set addresses T1, ∆Impα3 (Homo sapiens, UniProt O00629).
T1 construct: IBB-depleted species of Impα3 (residues 64–521 of the intact protein); made in house
T1 sequence (O00629 64-521): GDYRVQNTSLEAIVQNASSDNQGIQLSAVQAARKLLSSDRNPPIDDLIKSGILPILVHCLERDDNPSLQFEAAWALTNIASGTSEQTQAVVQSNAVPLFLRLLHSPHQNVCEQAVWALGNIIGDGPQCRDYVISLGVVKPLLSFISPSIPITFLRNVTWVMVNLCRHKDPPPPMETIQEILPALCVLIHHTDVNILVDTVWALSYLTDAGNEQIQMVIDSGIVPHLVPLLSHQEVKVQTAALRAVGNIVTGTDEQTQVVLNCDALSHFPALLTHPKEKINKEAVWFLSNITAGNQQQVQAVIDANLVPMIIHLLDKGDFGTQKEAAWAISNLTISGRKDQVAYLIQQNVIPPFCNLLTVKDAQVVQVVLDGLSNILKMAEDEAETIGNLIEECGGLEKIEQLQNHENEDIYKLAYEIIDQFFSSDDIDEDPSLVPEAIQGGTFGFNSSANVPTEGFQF
The data set is described as follows: Biolayer interferometry (BLI) binding to ∆Impα3. The conditions noted are these: peptide 1–10 μM, 25 °C; for kon: BLItz, ∆Impα3 immobilized via His-tag (0.25 μM), 10 × kinetics buffer, error from pseudo-first order fit, at least two repeats, read-out: kon; for koff: ∆Impα3 immobilized via His-tag, error from pseudo-first order fit (Equation 5). The method, then:
(§1) The association (kon) and dissociation (koff) rate constants of the binding of D-NLS peptides to either Impα3 or ∆Impα3 were determined by using a BLItz system (ForteBio, Pall, Barcelona, Spain). The buffer used in the experiments was that recommended by the manufacturer. […] The peptide concentrations were in a range from 1 to 10 μM during the association step. The general scheme of the protein association/dissociation reactions in the BLItz system for the D-NLS peptides was as follows: 30 s of initial baseline acquisition with the 10 × kinetics buffer (provided by the manufacturer); 120 s of loading either Impα3 and ∆Impα3 into the biosensor; 30 s of baseline acquisition with the 10 × kinetics buffer; 120 s of association of each peptide to the biosensor (which had been previously loaded with the importin species); and 120 s of monitoring of the dissociation of each peptide from the biosensor. All experiments were carried out at 25 °C.
(§2) Fittings of the BLI sensorgrams was carried out by using KaleidaGraph, as previously described. The interferometry response during the association step, R(t) (measured in response units, RU), and the binding rate, dR(t)/dt, could be used to evaluate the kinetics of the formation of the complex between Impα3/∆Impα3 and each D-NLS, according to:(2) dR/dt=konD-NLSRmax−Rt−koffR(t) where Rmax is proportional to the total concentration of biosensor-bound importin species; and [D-NLS] represents the concentration of the corresponding D-NLS peptide.
(§3) In Equation (2), R(t) is given by:(3) Rt= Req−Reqe^(−kobs t−t0) where Req is the steady-state (or equilibrium) response obtained at infinite time, when dR(t)/dt = 0, and t0 = 180 s is the time at which the association step between biosensor-immobilized Impα3/∆Impα3 and D-NLS in the solution started. We fitted the experimentally obtained R(t) under any condition as:(4) Rt= Req−Reqe^−kobs t−t0−R’eq(t−t0) where R^′eq was included to consider the lineal drift observed at longer times.
(§4) The dissociation process was always fitted to a single exponential, with R(t) given by:(6) Rt=R1 e^(−kofft−t0)−R^″eq(t−t0) where t0 = 300 is the time at which the dissociation of the D-NLS from the biosensor-bound Impα3/∆Impα3 started in our experimental set-up, R1 is the response level when dissociation starts, and the parameter R^″eq considers the linear drift observed at longer times.
(§5) The experiments were repeated at least twice for each peptide with each importin species.
Background: Biolayer interferometry detects binding as a change in optical thickness at a sensor tip.

The target in a further data set is T2, Impα3 (Homo sapiens, UniProt O00629).
T2 construct: Human importin α3 isoform (residues 1–521); made in house
T2 sequence (O00629 1-521): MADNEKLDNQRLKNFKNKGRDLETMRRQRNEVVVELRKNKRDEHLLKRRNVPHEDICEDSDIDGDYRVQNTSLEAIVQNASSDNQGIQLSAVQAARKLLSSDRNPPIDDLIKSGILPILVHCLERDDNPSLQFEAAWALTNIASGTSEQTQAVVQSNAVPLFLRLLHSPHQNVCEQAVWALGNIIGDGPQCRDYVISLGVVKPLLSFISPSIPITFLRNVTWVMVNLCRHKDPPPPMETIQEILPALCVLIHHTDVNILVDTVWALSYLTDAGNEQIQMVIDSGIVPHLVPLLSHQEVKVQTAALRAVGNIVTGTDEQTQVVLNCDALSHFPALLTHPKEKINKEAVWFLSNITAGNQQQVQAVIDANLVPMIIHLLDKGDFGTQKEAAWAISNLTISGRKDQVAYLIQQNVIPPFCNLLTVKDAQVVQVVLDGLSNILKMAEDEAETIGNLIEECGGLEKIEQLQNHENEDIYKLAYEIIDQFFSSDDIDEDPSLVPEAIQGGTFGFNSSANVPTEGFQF
Put plainly: Biolayer interferometry (BLI) binding to Impα3. The conditions noted are these: peptide 1–10 μM, 25 °C; for kon: BLItz, Impα3 immobilized via His-tag (0.25 μM), 10 × kinetics buffer, error from pseudo-first order fit, at least two repeats, read-out: kon; for koff: Impα3 immobilized via His-tag, error from pseudo-first order fit (Equation 5). The method, then: as §1, §2, §3, §4, §5

Data set [1] in a line: Translational diffusion NMR (DOSY) of NLS peptides. It counts as physicochemical. The conditions noted are these: ~100 μM peptide, 50 mM deuterated Tris pH 7.2, 100% D2O, 10 °C. The text has this: For the four peptides, we measured the experimental value of D for dioxane ranging from (1.2 ± 0.1) × 10^−5 to (1.05 ± 0.02) × 10^−5 cm^2 s^−1 in each solution containing the corresponding peptide; we assumed a hydrodynamic radius of 2.12 Å for dioxane (Table 1) under any condition. […] Furthermore, the values of D were similar for the D- and L-peptides, and the latter were already being described as disordered. Thus, we can conclude that the four D-peptides were monomeric and disordered, like the L-form counterparts, and, then, there was no difference in the hydrodynamic properties of the peptides by changing the enantiomeric nature of the residues.
The NMR spectra were acquired at 10 °C on a Bruker Avance III spectrometer (Bruker GmbH, Mannheim, Germany), equipped with a triple-resonance probe and z-pulse field gradients. All NMR experiments with D-NLS peptides were carried out in 50 mM deuterated Tris buffer (not corrected for isotope effects), pH 7.2. Spectra were calibrated with TSP, by considering pH-dependent changes in its chemical shifts; probe temperature was calibrated with pure methanol.
The typical D-NLS peptide concentrations in DOSY experiments were ~100 μM, and 128 scans were acquired, in which the gradient strength was varied linearly in sixteen steps, between 2 and 95% of the total power of the gradient coil. Measurements of the translational self-diffusion coefficient, D, were performed with the pulsed-gradient spin-echo sequence in the presence of 100% D2O. Details on the experimental conditions and fitting of the resulting curves have been described elsewhere. Gradient strength was calibrated by using the value of D for the residual proton water signal in a sample containing 100% D2O, in a 5 mm tube [23]. Gradient length was 2.5 ms; the time between the two pulse gradients in the sequence was 250 ms; and the recovery delay between the bipolar gradients was 100 μs. The signals from methyl groups between 0.8 and 1.0 ppm were used for peak integration, for all the D-NLS peptides. A final concentration of 1% of dioxane, which was assumed to have a hydrodynamic radius Rh of 2.12 Å [23], was added to the solution of each peptide.

For data set [2], the target named is T3, Human importin α3 isoform (residues 1–521) (human, UniProt O00629 1-521).
T3 construct: human importin α3 (Impα3, KPNA4), residues 1-521, intact protein with the N-terminal IBB domain; The materials list Ni2+-resin, ampicillin and IPTG, so expression in E. coli is surmised; also called Impα3; KPNA4
T3 sequence (looked up): T2 sequence (O00629 1-521)
The data set is described as follows: BLI; His-tagged Impα3 or ∆Impα3 immobilised on His-tag biosensors at 0.25 μM; peptides 1 to 10 μM; BLItz system, manufacturer's 10x kinetics buffer; 25 °C; kon and koff from pseudo-first-order plots; apparent Kd = koff/kon, two-state process assumed. The conditions noted are these: both partners purified.

The target of data set [3] is T4, IBB-depleted species of Impα3 (residues 64–521 of the intact protein) (human, UniProt O00629 64-521).
T4 construct: PDB 5XZX was used only as the model of ∆Impα3 for docking; its limits may differ from 64-521; also called ΔImpα3; truncated importin species
T4 sequence (looked up): T1 sequence (O00629 64-521)
The data set is described as above. The conditions noted are these: both partners purified.

For `CC(=O)N[C@H](Cc1ccc(O)cc1)C(=O)N[C@@H](C(=O)N[C@H](CC(N)=O)C(=O)N[C@H](CCCNC(=N)N)C(=O)N1CCC[C@@H]1C(=O)N[C@H](CO)C(=O)N1CCC[C@@H]1C(=O)NCC(=O)NCC(=O)N[C@H](Cc1c[nH]cn1)C(=O)N[C@H](CCC(=O)O)C(=O)N[C@H](CCCNC(=N)N)C(=O)N[C@H](CCCCN)C(=O)N[C@H](CC(C)C)C(=O)N[C@@H](C(=O)N[C@@H](C(=O)N[C@H](CCCCN)C(=O)N[C@H](CC(C)C)C(=O)N[C@H](CCC(N)=O)C(=O)N[C@H](CC(N)=O)C(=O)N[C@H](CO)C(=O)N[C@H](CCC(=O)O)C(N)=O)[C@H](C)OP(=O)(O)O)C(C)C)[C@H](C)O` [D-NLS-NUPR1phospho] (Ac-[dY][dT][dN][dR][dP][dS][dP]GG[dH][dE][dR][dK][dL][dV][d(pT)][dK][dL][dQ][dN][dS][dE]-NH2), on ∆Impα3, the kon was 6000 ± 1000 M⁻¹ s⁻¹ and the koff was 0.05 ± 0.01 s⁻¹. On Impα3, the kon is 10000 ± 3000 M⁻¹ s⁻¹ and the koff was 0.13 ± 0.02 s⁻¹. Further, in data set [1], the “Diffusion coefficient D” value was determined as 2.2 ± 0.2 cm^2 s^−1 × 10^6.

In the case of `CC[C@@H](C)[C@@H](NC(=O)[C@@H](CCCCN)NC(=O)[C@@H](CCC(N)=O)NC(=O)[C@@H](CCC(N)=O)NC(=O)[C@@H](CCCCN)NC(=O)[C@@H](CCCCN)NC(=O)[C@@H](CCCCN)NC(=O)[C@@H](CCCCN)NC(=O)[C@H](NC(=O)CNC(=O)[C@@H](CCC(=O)O)NC(=O)[C@@H](Cc1ccccc1)NC(=O)[C@@H](CC(C)C)NC(=O)[C@@H](CC(C)C)NC(=O)[C@@H](C)NC(=O)[C@@H](CCC(=O)O)NC(=O)CNC(=O)[C@@H](Cc1c[nH]cn1)NC(=O)CNC(=O)[C@@H](CCC(=O)O)NC(=O)[C@@H](CC(N)=O)NC(=O)[C@@H](CCC(N)=O)NC(=O)[C@@H](CCC(N)=O)NC(=O)[C@@H](CCC(=O)O)NC(=O)[C@@H](CCC(N)=O)NC(=O)[C@@H](Cc1ccccc1)NC(=O)[C@@H](CC(C)C)NC(=O)[C@@H](CCCCN)NC(C)=O)[C@H](C)CC)C(N)=O` [D-NLS-PADI] (Ac-[dK][dL][dF][dQ][dE][dQ][dQ][dN][dE]G[dH]G[dE][dA][dL][dL][dF][dE]G[dI][dK][dK][dK][dK][dQ][dQ][dK][dI]-NH2), on ∆Impα3, the kon worked out at 60000 ± 10000 M⁻¹ s⁻¹ and the koff was 0.37 ± 0.05 s⁻¹. Also, at Impα3, the kon came to 45000 ± 20000 M⁻¹ s⁻¹ and the koff turned out to be 0.6 ± 0.1 s⁻¹. Further, the “Diffusion coefficient D” value in data set [1] came out at 1.0 ± 0.1 cm^2 s^−1 × 10^6.

B1: D-enantiomeric, isolated NLS region of NUPR1 with phosphorylated Thr68 (peptide)
peptide: Ac-[dY][dT][dN][dR][dP][dS][dP]GG[dH][dE][dR][dK][dL][dV][d(pT)][dK][dL][dQ][dN][dS][dE]-NH2
SMILES: CC(=O)N[C@H](Cc1ccc(O)cc1)C(=O)N[C@@H](C(=O)N[C@H](CC(N)=O)C(=O)N[C@H](CCCNC(=N)N)C(=O)N1CCC[C@@H]1C(=O)N[C@H](CO)C(=O)N1CCC[C@@H]1C(=O)NCC(=O)NCC(=O)N[C@H](Cc1c[nH]cn1)C(=O)N[C@H](CCC(=O)O)C(=O)N[C@H](CCCNC(=N)N)C(=O)N[C@H](CCCCN)C(=O)N[C@H](CC(C)C)C(=O)N[C@@H](C(=O)N[C@@H](C(=O)N[C@H](CCCCN)C(=O)N[C@H](CC(C)C)C(=O)N[C@H](CCC(N)=O)C(=O)N[C@H](CC(N)=O)C(=O)N[C@H](CO)C(=O)N[C@H](CCC(=O)O)C(N)=O)[C@H](C)OP(=O)(O)O)C(C)C)[C@H](C)O
notes: NLS region of NUPR1 (nuclear protein 1), residues 54-74 of the intact protein, made of D-amino acids, Thr68 phosphorylated; Mirror-image (all-D) peptide; also called D-NLS-NUPR1phospho; source: synthetic peptide (Genscript, purity higher than 95%)
In the case of B1, in data set [2], the Kd turned out to be 13 µM, the koff stood at 0.13 s⁻¹ and the kon amounted to 10000 M⁻¹ s⁻¹. Also, in data set [3], the Kd was found to be 8 µM, the koff stood at 0.05 s⁻¹ and the kon came out at 6000 M⁻¹ s⁻¹.

B2: D-enantiomeric, isolated NLS region of NUPR1 (residues 54–74 of the intact protein) (peptide)
peptide: Ac-[dY][dT][dN][dR][dP][dS][dP]GG[dH][dE][dR][dK][dL][dV][dT][dK][dL][dQ][dN][dS][dE]-NH2
notes: NLS region of NUPR1 (nuclear protein 1), residues 54-74 of the intact protein, made of D-amino acids; also called D-NLS-NUPR1; wild-type D-NLS-NUPR1; source: synthetic peptide (Genscript, purity higher than 95%)
As to B2, the kon was 50000 M⁻¹ s⁻¹ in data set [2] and 110000 M⁻¹ s⁻¹ in data set [3].
